# “Also recorded” adds a separate entry of the source.
# Assays:
# [1] = test system: MSSA (methicillin-sensitive Staphylococcus aureus); experiment: Disk diffusion test on Staphylococcus aureus (MSSA); assay type: cell-based
# Description: (§1) Applicants undertook two rounds of studies. […] When agar plating was required, both rounds of Applicants' studies were undertaken using similar disk diffusion methods on bacteria grown on agar substrates in Petri dishes. These methods conform to those prescribed by the Clinical & Laboratory Standards Institute (https://clsi.org). […]
# Klebsiella pneumoniae = experiment: Disk diffusion test on Klebsiella pneumoniae; assay type: cell-based
# Description: (§2) Applicants undertook two rounds of studies. The results of the first round are illustrated in FIGS. 1A-9B and discussed in the related text. The results of the second round of studies are illustrated in FIGS. 10-23 and discussed in the related text. When agar plating was required, both rounds of Applicants' studies were undertaken using similar disk diffusion methods on bacteria grown on agar substrates in Petri dishes. These methods conform to those prescribed by the Clinical & Laboratory Standards Institute (https://clsi.org).
# (§3) Disk Diffusion tests with beta-lactam antibiotics with and without the beta-lactamase inhibitor of FIG. 1A. Closely spaced disks disclose possible synergistic or inhibitory effects between the antibiotics and the compound of FIG. 1A (labeled in FIGS. 4A-9B as Compound C). The distances between disks show the effectiveness of the possible synergy. […] Each disk contains either the compound of FIG. 1A or an antibiotic (one of FIGS. 3A-3D), or the compound of […] and an antibiotic (one of FIGS. 3A-3D). When a disk with the compound of FIG. 1A is in proximity to a disk with an antibiotic both agents diffuse into the bacterial growth medium, allowing us to observe the area where both agents are present at the same time. These disk diffusion tests were evaluated with the following:
# (§4) As noted above, Applicants' studies were undertaken using similar disk diffusion methods on bacteria grown on agar substrates in Petri dishes. These methods conform to those prescribed by the Clinical & Laboratory Standards Institute (https://clsi.org).
# [2] = test system: complicated urinary tract infection, including acute pyelonephritis; experiment: Intravenous cefepime plus 5-Boronothiophene-2-carboxylic acid in patients with complicated urinary tract infection; assay type: in vivo, adult patients; conditions: cefepime 2.0 g + 5-Boronothiophene-2-carboxylic acid 0.5 g, intravenously over two hours every 8 hours, 7 days
# Procedure: According to the disclosed invention, requisite amounts of both cefepime and 5-Boronothiophene-2-carboxylic acid are dissolved. Particularly, 2.0 g of cefepime are dissolved in sterile normal saline (0.9% sodium chloride) solution and 0.5 g of 5-Boronothiophene-2-carboxylic acid are dissolved in DMSO. Dissolution may be accelerated by use of an alcohol such as ethyl alcohol. Thereafter, a 2.5 g dose of a combination of cefepime (2.0 g) and 5-Boronothiophene-2-carboxylic acid (0.5 g) together with sterile normal saline (0.9% sodium chloride) as a diluent is administered to randomly assigned adult patients challenged with complicated urinary tract infection, including acute pyelonephritis, over a two-hour period with the dose being administered intravenously every 8 hours. A 1.0 g dose of a placebo is administered over 30-minute periods, every 8 hours also intravenously. The administration may be carried out over a period of 7 days.
# Escherichia coli = experiment: Disk diffusion test on Escherichia coli; assay type: cell-based
# Description: as §1
# Pseudomonas aeruginosa = experiment: Disk diffusion test on Pseudomonas aeruginosa; assay type: cell-based; conditions: in combination with aztreonam
# Description: as §1
# Acinetobacter baumannii = experiment: Disk diffusion test on Acinetobacter baumannii; assay type: cell-based
# Description: as §1
# Citrobacter freundii = experiment: Disk diffusion test on Citrobacter freundii; assay type: cell-based
# Description: as §1
# [3] = test system: methicillin-resistant coagulase-negative Staphylococcus sps. (MRCoNS); experiment: Disk diffusion test on MRCoNS; assay type: cell-based
# Description: as §2, §3, §4
# [4] = in combination with ceftriaxone
# [5] = in combination with ceftazidime
smiles,measurement,setting,value
"O=C(O)c1ccc(B(O)O)s1 [Compound C, 2-carboxythiophene-5-boronic acid]",effectiveness of the combination with antibiotic,[1]; in combination with ampicillin,enhanced effectiveness
same,effectiveness of the combination with antibiotic,[1]; in combination with penicillin G,enhanced effectiveness
same,enhancement of the action of ceftazidime,Klebsiella pneumoniae; ceftazidime 30 μg + Compound C 15 μg,very strongly enhances; also recorded: strongly enhances
same,effectiveness of the combination with antibiotic,Klebsiella pneumoniae; in combination with ceftazidime (second round),enhanced effectiveness
same,effectiveness of the combination with antibiotic,Klebsiella pneumoniae; [4],enhanced effectiveness
same,effectiveness of the combination with antibiotic,Klebsiella pneumoniae; in combination with meropenem (second round),enhanced effectiveness
same,effect on the activity of meropenem,Klebsiella pneumoniae; meropenem 10 μg + Compound C 15 μg,essentially no effect
same,effect on the activity of meropenem,Klebsiella pneumoniae; meropenem 10 μg + Compound C 150 μg,only weakly enhances
same,antibacterial activity of the agent by itself,"Klebsiella pneumoniae; single agent disk, ceftazidime 30 μg, meropenem 10 μg, Compound C 15 μg",no activity on its own
same,microbiologic and clinical success,[2],both microbiologic and clinical success
same,effectiveness of the combination with antibiotic,Escherichia coli; in combination with amoxycillin,enhanced effectiveness
same,effectiveness of the combination with antibiotic,Escherichia coli; [5],enhanced effectiveness
same,effectiveness of the combination with antibiotic,Escherichia coli; [4],enhanced effectiveness
same,effectiveness of the combination with antibiotic,Escherichia coli; in combination with meropenem,enhanced effectiveness
same,effectiveness of the combination with antibiotic,Pseudomonas aeruginosa,enhanced effectiveness
same,effectiveness of the combination with antibiotic,Acinetobacter baumannii; [5],enhanced effectiveness
same,effectiveness of the combination with antibiotic,Acinetobacter baumannii; in combination with meropenem,enhanced effectiveness
same,effectiveness of the combination with antibiotic,Citrobacter freundii; [5],enhanced effectiveness
same,effectiveness of the combination with antibiotic,Citrobacter freundii; [4],enhanced effectiveness
same,effectiveness of the combination with antibiotic,Citrobacter freundii; in combination with meropenem,enhanced effectiveness
same,effect on cefoxitin activity,[3]; cefoxitin 30 μg + Compound C 15 μg,does not enhance cefoxitin activity
same,effect on cefoxitin activity,[3]; cefoxitin 30 μg + Compound C 150 μg,inhibits cefoxitin antibiotic activity
same,effectiveness of the combination with antibiotic,[3]; in combination with ampicillin,enhanced effectiveness
same,effectiveness of the combination with antibiotic,[3]; in combination with penicillin G (second round),enhanced effectiveness
same,activation of the antibiotic action of penicillin G,[3]; penicillin G 10 μg + Compound C 15 μg,strongly enables; also recorded: activates the antibiotic action of penicillin G
same,activation of the antibiotic action of penicillin G,[3]; penicillin G 10 μg + Compound C 150 μg,further activate penicillin G
same,antibacterial activity of the agent by itself,"[3]; single agent disk, penicillin G 10 μg, cefoxitin 30 μg, Compound C 15 μg",no antibacterial activity

# From patent US20250332181A1, “ANTIBIOTIC METHODS AND COMPOSITIONS” (AI BIO DISCOVERY LLC, priority 2024, published 2025)
